# Test results reported in patent publication US5336485A, “Method for protecting animals against tacrine induced cytotoxic injury using sterol compounds” (priority 1993, dated 1994).
# Structures can show the parent of a compound that is named as a salt.
# What was measured:
# male Sprague-Dawley rats = assay: CCl4 induced lethality in rats; type: in vivo, rat; conditions: for Survival after CCl4 treatment: 100 mg/kg ip 24 h prior, […] CCl4 oral
# liver [1] = assay: CCl4 induced hepatotoxicity in rats (serum AST/ALT); type: in vivo, rat
# In short: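 Male Sprague-Dawley rats received test compounds i.p. at 100 mg/kg 20–24 h before oral CCl4 (2.9 g/kg or 1 g/kg). Serum AST and ALT were measured 48 h after CCl4 challenge.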
# liver [2] = assay: Acetaminophen-induced hepatotoxicity in rats (AST/ALT); type: in vivo, rat
# Method: In vivo experiments were performed to determine if alpha-TS administration protects the liver from the hepatotoxic effects of acetaminophen. Acetaminophen is a commonly used analgesic that is metabolized to a reactive intermediate. […] The other group of male Sprague-Dawley rats received only the acetaminophen challenge. Forty eight hours after the challenge the rats were sacrificed and the levels of aspartate aminotransferase (AST) and alanine aminotransferase (ALT) were measured.
# FIGS. 10 and 11 show the results of in vivo experiments where male Sprague-Dawley rats were given an oral dose of 15 or 30 mg THA/kg body weight, respectively. In the experiments, one group of rats was provided with an i.p. dose of 100 mg cholesteryl succinate tris salt/kg body weight 20 hours prior to the THA challenge, another group of rats only received the THA challenge, and the last group of rats acted as a control and were not challenged. The serum AST levels were determined with respect to time after the THA challenge.
# [3] = test system: L1210 murine leukemia cells; assay: Inhibition of L1210 leukemia cell growth in vitro; type: cell-based, mouse
# Method: Similar in vitro experiments were conducted with cholesteryl succinate tris salt and alpha-TS tris salt.
# L1210 leukemia cells = conditions: 100 mg/kg ip
# CDF1 mice = assay: Doxorubicin lethality in CDF1 mice (normal tissue); type: in vivo, mouse; conditions: 100 mg/kg ip 20 h prior, DOX 10, 15, 20, 25 mg/kg
# Method: The experiments were conducted in accordance with NCI Protocol 1,100. FIGS. 8a-d show the experimental results obtained when male CDF1 mice (n=6) received either vehicle only or 100mg/kg body weight i.p. dose of either alpha-TS or cholesteryl succinate 20 hours prior to DOX administration. FIGS. 8a-d respectively show the results obtained when the mice received 10, 15, 20, and 25 mg DOX/kg body weight. […] FIGS. 9a-d show the experimental results obtained when male CDF1 mice ([…]) were injected (i.p.) with 10^6 murine L1210 leukemia cells followed immediately by an injection of alpha-TS tris salt (100 mg/kg, i.p.) or saline injection (vehicle), and twenty hours later (Day=0) each mouse in three of the groups was i.p. injected with 15, 20, or 25 mg DOX/kg body weight ([…]). Survival was monitored for twenty days.
# central nervous system = assay: CCl4 central nervous system toxicity in rats; type: in vivo, rat; conditions: pretreatment
# [4] = Tissue distribution of alpha-tocopherol and alpha-tocopherol ester in rats; type: in vivo, rat; conditions: 48 h after single dose
# [5] = 50 mg/kg ip, 48 h after 1 g/kg CCl4 (Table 28)
# [6] = 100 mg/kg ip 20 h prior, 48 h after 1 g/kg CCl4 (Table 20)
# [7] = 100 mg/kg ip (dihydrocholesterol 80 + sodium sulfate 30 mg/kg), 48 h after 1 g/kg CCl4 (Table 35)
# [8] = 100 mg/kg ip, 30 min after CCl4 1 g/kg (Table 29)
# [9] = 100 mg/kg ip, 30 min prior to CCl4 1 g/kg (Table 29)
# [10] = 100 mg/kg ip, 20 hours prior to CCl4 1 g/kg (Table 29)
# [11] = 100 mg/kg ip, 48 h after 1 g/kg CCl4 (Table 28)
# [12] = 100 mg/kg ip, 48 h after 1 g/kg CCl4 (Table 31)
# [13] = 100 mg/kg ip, 48 h after 1 g/kg CCl4 (Table 37)
# [14] = 100 mg/kg ip, 48 h after 1 g/kg CCl4 (Table 40)
# [15] = 100 mg/kg ip, PEG 400 vehicle, 48 h after 1 g/kg CCl4 (Table 34)
# [16] = 100 mg/kg ip, immediately prior to CCl4 1 g/kg (Table 29)
# [17] = 100 mg/kg oral 20 h prior, 48 h after 1 g/kg CCl4 (Table 20)
# [18] = 200 mg/kg ip, 48 h after 1 g/kg CCl4 (Table 28)
# [19] = PEG 400 vehicle, ip 20 h prior, 24 hrs after 2 g/kg CCl4 (Table 32)
# [20] = PEG 400 vehicle, ip 20 h prior, 48 hrs after 2 g/kg CCl4 (Table 32)
# [21] = PEG 400 vehicle, ip 20 h prior, 72 hrs after 2 g/kg CCl4 (Table 32)
# [22] = 100 mg/kg ip 20 hrs prior, 48 h after 2 g/kg AP (Table 23)
# [23] = 100 mg/kg ip 20 h prior, 48 h after 1 g/kg CCl4 (Table 27), listed as Alpha Tocopheryl Succinate free acid
# [24] = rat plasma, 100 mg/kg ip 24 h prior, 48 h after […] CCl4
# [25] = 100 mg/kg ip 24 h prior, acetaminophen 2.5 g/kg
smiles,measurement,setting,value
CC(C)CCC[C@@H](C)[C@H]1CC[C@H]2[C@@H]3CC=C4C[C@@H](OC(=O)CCC(=O)O)CC[C@]4(C)[C@H]3CC[C@]12C [Cholesteryl Succinate tris salt],Survival after CCl4 treatment,male Sprague-Dawley rats,Yes
same,ALT,liver [1]; [5],0.16 ± 0.11 10^3 units/L
same,AST,liver [1]; [5],0.56 ± 0.35 10^3 units/L
same,Serum AST Levels,"liver [1]; 100 mg/kg ip 20 h prior, 24 hrs after 2 g/kg CCl4 (Table 26), tris salt",0.57 ± 0.38 10^3 units/L
same,ALT,liver [1]; [6],0.122 ± 0.034 10^3 units/L
same,AST,liver [1]; [6],0.41 ± 0.08 10^3 units/L
same,Serum AST Levels,"liver [1]; 100 mg/kg ip 20 h prior, 48 hrs after 2 g/kg CCl4 (Table 26), tris salt",0.19 ± 0.07 10^3 units/L
same,ALT,liver [1]; [7],0.04 ± 0.02 10^3 units/L
same,AST,liver [1]; [7],0.22 ± 0.06 10^3 units/L
same,ALT,liver [1]; [8],1.50 ± 0.79 10^3 units/L
same,AST,liver [1]; [8],7.87 ± 4.09 10^3 units/L
same,ALT,liver [1]; [9],2.12 ± 1.43 10^3 units/L
same,AST,liver [1]; [9],9.09 ± 4.38 10^3 units/L
same,ALT,liver [1]; [10],0.04 ± 0.01 10^3 units/L
same,AST,liver [1]; [10],0.12 ± 0.02 10^3 units/L
same,ALT,liver [1]; [11],0.04 ± 0.02 10^3 units/L
same,AST,liver [1]; [11],0.22 ± 0.06 10^3 units/L
same,ALT,liver [1]; [12],0.02 ± 0 10^3 units/L
same,AST,liver [1]; [12],0.10 ± 0.03 10^3 units/L
same,ALT,liver [1]; [13],0.09 ± 0.01 10^3 units/L
same,AST,liver [1]; [13],0.21 ± 0.03 10^3 units/L
same,ALT,liver [1]; [14],0.04 ± 0.01 10^3 units/L
same,AST,liver [1]; [14],0.12 ± 0.02 10^3 units/L
same,ALT,liver [1]; [15],0.07 ± 0.03 10^3 units/L
same,AST,liver [1]; [15],0.29 ± 0.22 10^3 units/L
same,ALT,liver [1]; [16],1.12 ± 1.38 10^3 units/L
same,AST,liver [1]; [16],6.69 ± 1.87 10^3 units/L
same,SGOT Levels,"liver [1]; 100 mg/kg ip, 48 h after 1.0 g/kg CCl4",0.10 ± 0.03 10^3 units/L
same,ALT,liver [1]; [17],4.09 ± 1.191 10^3 units/L
same,AST,liver [1]; [17],12.51 ± 41.31 10^3 units/L
same,ALT,liver [1]; [18],0.03 ± 0.01 10^3 units/L
same,AST,liver [1]; [18],0.16 ± 0.08 10^3 units/L
same,Serum AST Levels,liver [1]; [19],.19 ± .10 10^3 units/L
same,Serum AST Levels,liver [1]; [20],.10 ± .02 10^3 units/L
same,Serum AST Levels,liver [1]; [21],.10 ± .02 10^3 units/L
same,inhibition in vivo at 100 mg/kg,"liver [1]; Rattus norvegicus, ip, 48 h, read-out: % Hepatoprotection",100%
same,protection against CCl4 hepatotoxicity (in words),"liver [1]; rats, serum enzyme levels",complete protection
same,Serum ALT Level,liver [2]; [22],158 ± 77 Units/L
same,Serum AST Level,liver [2]; [22],785 ± 495 Units/L
same,growth rate of L1210 cells (FIG. 7),[3],significantly suppress the growth rate of L1210 cells
same,Survival Time,L1210 leukemia cells,6.8 ± 0.4 days
"Cc1c(C)c2c(c(C)c1OC(=O)CCC(=O)O)CC[C@@](C)(CCC[C@H](C)CCC[C@H](C)CCCC(C)C)O2 [alpha-TS, d-alpha-tocopheryl succinate]",Survival after CCl4 treatment,male Sprague-Dawley rats,Yes
same,Protection from CCl4,male Sprague-Dawley rats; 100 mg/kg ip (Table 5),Yes
same,Days Survived after CCl4,"male Sprague-Dawley rats; 100 mg/kg ip, 1 hour after CCl4 and daily thereafter",2 days
same,Days Survived after CCl4,"male Sprague-Dawley rats; 100 mg/kg ip, 1 hour prior and daily thereafter",> 7 days
same,Days Survived After CCl4 Treatment,"male Sprague-Dawley rats; 100 mg/kg ip, 24 h prior, CCl4 3.8 g/kg",> 7 days
same,Days Survived After CCl4 Treatment,"male Sprague-Dawley rats; 100 mg/kg ip, 24 h prior, CCl4 5.0 g/kg",2 days
same,Days Survived After CCl4 Treatment,"male Sprague-Dawley rats; 100 mg/kg ip, 24 h prior, CCl4 […]",> 7 days
same,Days Survived after CCl4,"male Sprague-Dawley rats; 100 mg/kg ip, single dose 24 h prior to CCl4 […]",> 7 days
same,cytoprotection against CCl4 lethality,male Sprague-Dawley rats; 100 mg/kg oral,not observed
same,Protection from CCl4,male Sprague-Dawley rats; 100 mg/kg oral (Table 5),No
same,Days Survived After CCl4 Treatment,"male Sprague-Dawley rats; 100 mg/kg oral, 24 h prior, CCl4 2.2 g/kg",> 7 days
same,Days Survived After CCl4 Treatment,"male Sprague-Dawley rats; 100 mg/kg oral, 24 h prior, CCl4 3.8 g/kg",2 days
same,Days Survived After CCl4 Treatment,"male Sprague-Dawley rats; 100 mg/kg oral, 24 h prior, CCl4 5.0 g/kg",2 days
same,Days Survived After CCl4 Treatment,"male Sprague-Dawley rats; 100 mg/kg oral, 24 h prior, CCl4 […]",3 days
same,Days Survived After CCl4 Treatment,"male Sprague-Dawley rats; 25 m/kg, single dose 24 h prior",> 7 days
same,incubation time required for cytoprotection,male Sprague-Dawley rats; single dose,greater than 12 hours
same,ALT,liver [1]; [23],1.08 ± 0.23 10^3 units/L
same,AST,liver [1]; [23],2.06 ± 0.53 10^3 units/L
same,Serum AST Levels,liver [1]; [19],.38 ± .15 10^3 units/L
same,Serum AST Levels,liver [1]; [20],.39 ± .22 10^3 units/L
same,Serum AST Levels,liver [1]; [21],.14 ± .06 10^3 units/L
same,ALT,liver [1]; [24],631 ± 17 Units/L
same,AST,liver [1]; [24],"3,430 ± 1500 Units/L"
same,ALT,liver [2]; [25],432 ± 188 Units/L
same,AST,liver [2]; [25],"1,659 ± 607 Units/L"
same,minimal effective concentration,"[3]; Mus musculus, L1210, free acid, 72 hours, read-out: concentration that significantly suppresses growth rate of L1210 cells",> 100 µM
same,"survival after DOX, normal mice (FIGS. 8a-d)",CDF1 mice,survived significantly longer
same,recovery from acute CNS toxic manifestations of CCl4,central nervous system,several days before rats which are not treated with alpha-TS
same,alpha-TS detection in tissue,[4],could not be detected
